Several values for one entry are separate records, joined by “and”; a condition that tells them apart may be missing. Identical values can stand only once.
Columns and labels:
Mus musculus [1] = experiment: Ratio of the tumor weight of mice at the initial stage and the final stage of the experiment was reported at a dose of 20 mg/kg (Q2dx9) administered i.p.; assay type: functional; details: route intraperitoneal
Mus musculus [2] = experiment: (§1) In vivo inhibitory activity against murine S-180 sarcoma at a dose of 7.5 mg/kg (day 7); assay type: functional; details: S-180, 168 h
SPC-A4 = experiment: In vitro cytotoxic activity against SPC-A4 lung cancer solid tumor cell line by MTT assay (microculture terazolium colorimetric); assay type: functional, cell-based; details: Homo sapiens
Mus musculus [3] = experiment: In vivo inhibitory activity against human lung adenocarcinoma xenograft A-549 in mice at a dose of 10 mg/kg (Q2dx10) administered i.p.; assay type: functional; details: route intraperitoneal
Mus musculus [4] = experiment: In vivo inhibitory activity against human lung adenocarcinoma xenograft A-549 in mice at a dose of 30 mg/kg (Q2dx9) administered i.p.; assay type: functional; details: A549, ip, route intraperitoneal
Mus musculus [5] = experiment: as §1; assay type: functional; details: S-180, 168 h; remark: listed apart in the source
Mus musculus [6] = experiment: In vivo inhibitory activity against human lung adenocarcinoma xenograft A-549 in mice at a dose of 20 mg/kg (Q2dx10) administered i.p.; assay type: functional; details: route intraperitoneal
Mus musculus [7] = experiment: (§2) Ratio of the tumor weight of mice at the initial stage and the final stage of the experiment was reported at a dose of 7.5 mg/kg i.p. (day 10); assay type: functional; details: route intraperitoneal
Mus musculus [8] = experiment: (§3) In vivo inhibitory activity against murine S-180 sarcoma at a dose of 15 mg/kg (day 6); assay type: functional; details: S-180, 144 h
Mus musculus [9] = experiment: In vivo inhibitory activity against human lung adenocarcinoma xenograft LAX-83 in mice at a dose of 20 mg/kg (Q2dx10) administered i.p.; assay type: functional; details: route intraperitoneal
Mus musculus [10] = experiment: as §3; assay type: functional; details: S-180, 144 h; remark: listed apart in the source
Mus musculus [11] = experiment: (§4) Ratio of the tumor weight of mice at the initial stage and the final stage of the experiment was reported at a dose of 15 mg/kg (day 6); assay type: functional
Mus musculus [12] = experiment: In vivo inhibitory activity against murine Lewis lung cancer at a dose of 15 mg/kg i.p. (day10); assay type: functional; details: route intraperitoneal
Mus musculus [13] = experiment: (§5) Ratio of the tumor weight of mice at the initial stage and the final stage of the experiment was reported at a dose of 15 mg/kg i.p. (day 9); assay type: functional; details: route intraperitoneal
Mus musculus [14] = experiment: (§6) Ratio of the tumor weight of mice at the initial stage and the final stage of the experiment was reported at a dose of 7.5 mg/kg (day 7); assay type: functional
Mus musculus [15] = experiment: Ratio of the tumor weight of mice at the initial stage and the final stage of the experiment was reported at a dose of 20 mg/kg (Q2dx10) administered i.p.; assay type: functional; details: route intraperitoneal
Mus musculus [16] = experiment: In vivo inhibitory activity against murine Lewis lung cancer at a dose of 7.5 mg/kg i.p. (day10); assay type: functional; details: ip, 240 h, route intraperitoneal
Mus musculus [17] = experiment: In vivo inhibitory activity against human lung adenocarcinoma xenograft LAX-83 in mice at a dose of 30 mg/kg (Q2dx10) administered i.p.; assay type: functional; details: route intraperitoneal
Mus musculus [18] = experiment: Ratio of the tumor weight of mice at the initial stage and the final stage of the experiment was reported at a dose of 3.75 mg/kg i.p. (day 7); assay type: functional; details: route intraperitoneal
Mus musculus [19] = experiment: In vivo inhibitory activity against murine Lewis lung cancer at a dose of 37.5 mg/kg i.p. (day10); assay type: functional; details: route intraperitoneal
Mus musculus [20] = experiment: (§7) Ratio of the tumor weight of mice at the initial stage and the final stage of the experiment was reported at a dose of 30 mg/kg (Q2dx10) administered i.p.; assay type: functional; details: route intraperitoneal
HL-60 [21] = experiment: In vitro cytotoxic activity against HL-60 human leukemia cell line by MTT assay (microculture terazolium colorimetric); assay type: functional, cell-based
Mus musculus [22] = experiment: In vivo inhibitory activity against murine S-180 sarcoma at a dose of 3.75 mg/kg i.p. (day 7); assay type: functional; details: S-180, ip, 168 h, route intraperitoneal
Mus musculus [23] = experiment: as §2; assay type: functional; details: route intraperitoneal; remark: listed apart in the source
Mus musculus [24] = experiment: Ratio of the tumor weight of mice at the initial stage and the final stage of the experiment was reported at a dose of 3.75 mg/kg (day 7); assay type: functional
Mus musculus [25] = experiment: as §6; assay type: functional; remark: listed apart in the source
Mus musculus [26] = experiment: In vivo inhibitory activity against human lung adenocarcinoma xenograft A-549 in mice at a dose of 10 mg/kg (Q2dx9) administered i.p.; assay type: functional; details: A549, ip, route intraperitoneal
Mus musculus [27] = experiment: In vivo inhibitory activity against murine S-180 sarcoma at a dose of 7.5 mg/kg i.p. (day 7); assay type: functional; details: S-180, ip, 168 h, route intraperitoneal
Mus musculus [28] = experiment: In vivo inhibitory activity against human lung adenocarcinoma xenograft A-549 in mice at a dose of 30 mg/kg (Q2dx10) administered i.p.; assay type: functional; details: route intraperitoneal
Mus musculus [29] = experiment: In vivo inhibitory activity against murine S-180 sarcoma at a dose of 15 mg/kg i.p. (day 6); assay type: functional; details: S-180, ip, 144 h, route intraperitoneal
Mus musculus [30] = experiment: In vivo inhibitory activity against human lung adenocarcinoma xenograft A-549 in mice at a dose of 20 mg/kg (Q2dx9) administered i.p.; assay type: functional; details: A549, ip, route intraperitoneal
SGC-7901 = experiment: In vitro cytotoxic activity against SGC-7901 stomach cancer solid tumor cell line by MTT assay (microculture terazolium colorimetric); assay type: functional, cell-based; details: Homo sapiens
Mus musculus [31] = experiment: Ratio of the tumor weight of mice at the initial stage and the final stage of the experiment was reported at a dose of 3.75 mg/kg i.p. (day 10); assay type: functional; details: route intraperitoneal
Mus musculus [32] = experiment: as §5; assay type: functional; details: route intraperitoneal; remark: listed apart in the source
Mus musculus [33] = experiment: Ratio of the tumor weight of mice at the initial stage and the final stage of the experiment was reported at a dose of 10 mg/kg (Q2dx10) administered i.p.; assay type: functional; details: route intraperitoneal
Mus musculus [34] = experiment: as §7; assay type: functional; details: route intraperitoneal; remark: listed apart in the source
Mus musculus [35] = experiment: In vivo inhibitory activity against human lung adenocarcinoma xenograft LAX-83 in mice at a dose of 10 mg/kg (Q2dx10) administered i.p.; assay type: functional; details: route intraperitoneal; for inhibition in vivo at 10 mg/kg: ip
Mus musculus [36] = experiment: as §4; assay type: functional; remark: listed apart in the source
P388 = experiment: In vitro cytotoxic activity against P388 mouse leukemia cell line by MTT assay (microculture terazolium colorimetric); assay type: functional, cell-based
Mus musculus [37] = experiment: Ratio of the tumor weight of mice at the initial stage and the final stage of the experiment was reported at a dose of 30 mg/kg (Q2dx9) administered i.p.; assay type: functional; details: route intraperitoneal
Mus musculus [38] = experiment: In vivo inhibitory activity against murine S-180 sarcoma at a dose of 3.75 mg/kg (day 7); assay type: functional; details: S-180, 168 h
HL-60 [39] = experiment: In vitro cytotoxic activity against HL-60 human leukemia cell line was determined by MTT assay (microculture terazolium colorimetric); assay type: functional, cell-based

## Cc1ccc2c(c1CCC(O)C(C)(C)O)C(=O)C(=O)C(C(C)C)=C2 (stereo not given)
Mus musculus [1]
  Tumor weight: 1.59 g
Mus musculus [2]
  inhibition in vivo at 7.5 mg/kg: 35.5%
SPC-A4
  IC50: 2460 nM
Mus musculus [3]; Mus musculus, A549, ip
  inhibition in vivo at 10 mg/kg: 48.2%
Mus musculus [3]; 10 mg/kg
  Inhibition: 30.15%
Mus musculus [4]
  inhibition in vivo at 30 mg/kg: 51.2%
Mus musculus [5]
  inhibition in vivo at 7.5 mg/kg: 32.2%
Mus musculus [6]
  Inhibition: 60.55% and 27.76%
Mus musculus [7]
  Tumor weight: 0.97 g
Mus musculus [8]
  inhibition in vivo at 15 mg/kg: 44%
Mus musculus [9]
  Inhibition: 26.73% and 17.53% and 9.39%
Mus musculus [10]
  inhibition in vivo at 15 mg/kg: 48.9%
Mus musculus [11]
  Tumor weight: 0.92 g and 1.06 g
Mus musculus [12]; Mus musculus, Lung, ip, 240 h
  inhibition in vivo at 15 mg/kg: 49%
Mus musculus [12]; 15 mg/kg
  Inhibition: 54.5%
Mus musculus [13]
  Tumor weight: 0.91 g
Mus musculus [14]
  Tumor weight: 1.22 g
Mus musculus [15]
  Tumor weight: 1.25 g [middle of 5 runs]
Mus musculus [16]
  inhibition in vivo at 7.5 mg/kg: 34%
Mus musculus [17]
  Inhibition: 40.31% and 51.42% and 61.59%
Mus musculus [18]
  Tumor weight: 1.52 g
Mus musculus [19]; Mus musculus, Lung, ip, 240 h
  inhibition in vivo at 37.5 mg/kg: 12.9%
Mus musculus [19]; 37.5 mg/kg
  Inhibition: 7.5%
Mus musculus [20]
  Tumor weight: 0.93 g and 0.44 g
HL-60 [21]
  IC50: 3570 nM
Mus musculus [22]
  inhibition in vivo at 3.75 mg/kg: 37.2%
Mus musculus [23]
  Tumor weight: 1.32 g
Mus musculus [24]
  Tumor weight: 1.99 g and 1.72 g
Mus musculus [25]
  Tumor weight: 1.07 g and 1.4 g
Mus musculus [26]
  inhibition in vivo at 10 mg/kg: 25.5%
Mus musculus [27]
  inhibition in vivo at 7.5 mg/kg: 48.9%
Mus musculus [28]
  Inhibition: 55.6% and 80.14%
Mus musculus [29]
  inhibition in vivo at 15 mg/kg: 61.3%
Mus musculus [30]
  inhibition in vivo at 20 mg/kg: 53.6%
SGC-7901
  IC50: 1840 nM
Mus musculus [31]
  Tumor weight: 1.28 g and 1.85 g
Mus musculus [32]
  Tumor weight: 0.75 g
Mus musculus [33]
  Tumor weight: 1.13 g [middle of 5 runs]
Mus musculus [34]
  Tumor weight: 0.72 g and 0.53 g and 1.02 g
Mus musculus [35]; Mus musculus
  inhibition in vivo at 10 mg/kg: 41%
Mus musculus [35]
  inhibition in vivo at 10 mg/kg: 28%
Mus musculus [35]; 10 mg/kg
  Inhibition: 31.23%
Mus musculus [36]
  Tumor weight: 0.93 g
P388
  IC50: 3490 nM
Mus musculus [37]
  Tumor weight: 1.67 g
Mus musculus [38]
  inhibition in vivo at 3.75 mg/kg: 8.4%

## Cc1ccc2c(c1CCC1OC1(C)C)C(=O)C(=O)C(C(C)C)=C2 (stereo not given)
SPC-A4
  IC50: 1880 nM
HL-60 [21]
  IC50: 4480 nM
SGC-7901
  IC50: 71500 nM
P388
  IC50: 3380 nM

## CC(C)=CCCc1c(C)ccc2c1C(=O)C(=O)C(C(C)C)=C2
SPC-A4
  IC50: 2750 nM
HL-60 [39]
  IC50: 2360 nM
SGC-7901
  IC50: 1370 nM
P388
  IC50: 1950 nM

## Cc1ccc2c(c1CCC=O)C(=O)C(=O)C(C(C)C)=C2
SPC-A4
  IC50: 2680 nM
HL-60 [21]
  IC50: 2390 nM
SGC-7901
  IC50: 52400 nM
P388
  IC50: 1780 nM

## CC(=O)OC(CCc1c(C)ccc2c1C(=O)C(=O)C(C(C)C)=C2)C(C)(C)O (stereo not given)
SPC-A4
  IC50: 2610 nM
HL-60 [21]
  IC50: 5040 nM
P388
  IC50: 3390 nM

## Cc1ccc2c(c1CCC(=O)C(C)C)C(=O)C(=O)C(C(C)C)=C2
SPC-A4
  IC50: 3380 nM
HL-60 [21]
  IC50: 270 nM
SGC-7901
  IC50: 1980 nM
P388
  IC50: 830 nM

From ChEMBL document CHEMBL1131984, “Synthesis and antitumour activity of novel diterpenequinone salvicine and the analogs” (Bioorg Med Chem Lett, 1999)
